Experimental data from ChEMBL document CHEMBL6078644, “Azobenzene-Tagged Photopeptides Exhibiting Excellent Selectivity and Light-Induced Cytotoxicity in MCF-7 Cells over HeLa and A549” (J Med Chem, 2024).
Active and inactive are the calls of the source. The rule behind the calls is not given here.

Experiments:
[1] = Half-life of compound under dark condition measured for 150 hrs at 6 hrs interval by UV-spectroscopy; format: physicochemical
[2] = target: T1, Proteasome component C5 (Homo sapiens) (UniProt P20618); assay: Inhibition of human 20S proteosome beta1 subunit using […] as substrate preincubated for 30 mins with compound prepared under 365 nm UV light condition for 1 hrs followed by substrate addition and measured after 12 hrs by fluorescence plate reader analysis; conditions: time 12.5 hrs
T1 sequence (whole entry): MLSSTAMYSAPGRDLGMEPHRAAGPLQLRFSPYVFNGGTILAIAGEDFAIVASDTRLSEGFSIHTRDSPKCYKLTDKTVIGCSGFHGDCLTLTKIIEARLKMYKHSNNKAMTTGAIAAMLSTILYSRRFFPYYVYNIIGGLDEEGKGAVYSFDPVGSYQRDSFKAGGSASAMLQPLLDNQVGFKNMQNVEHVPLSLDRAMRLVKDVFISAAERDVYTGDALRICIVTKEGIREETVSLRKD

[3] = target: Proteasome Macropain subunit (Homo sapiens) (UniProt P49721); assay: Inhibition of human 20S proteosome beta2 subunit using Bz-VGR-AMC as substrate preincubated for 30 mins with compound prepared under 365 nm UV light condition for 1 hrs followed by substrate addition and measured after 12 hrs by fluorescence plate reader analysis; conditions: time 12.5 hrs
Proteasome Macropain subunit (Homo sapiens), sequence (P49721 whole entry): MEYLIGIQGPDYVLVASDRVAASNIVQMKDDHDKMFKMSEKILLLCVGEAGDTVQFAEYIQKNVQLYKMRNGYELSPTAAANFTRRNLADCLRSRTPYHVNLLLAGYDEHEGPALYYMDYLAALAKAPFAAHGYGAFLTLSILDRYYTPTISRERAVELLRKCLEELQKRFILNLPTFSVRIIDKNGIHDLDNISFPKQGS

[4] = test system: HeLa; assay: Cytotoxicity against human HeLa cells assessed as reduction in cell viability incubated for 48 hrs with compound prepared under 365 nm UV light condition for 1 hrs by CellTIter blue reagent based fluorescence plate reader analysis
[5] = test system: MCF7; assay: Cytotoxicity against human MCF7 cells assessed as reduction in cell viability incubated for 48 hrs with compound prepared under 365 nm UV light condition for 1 hrs by CellTIter blue reagent based fluorescence plate reader analysis
[6] = test system: A549; assay: Cytotoxicity against human A549 cells assessed as reduction in cell viability incubated for 48 hrs with compound prepared under 365 nm UV light condition for 1 hrs by CellTIter blue reagent based fluorescence plate reader analysis
[7] = target: T1, Proteasome component C5 (Homo sapiens); assay: Inhibition of human 20S proteosome beta1 subunit using […] as substrate preincubated for 30 mins with compound prepared under dark condition followed by substrate addition and measured after 12 hrs by fluorescence plate reader analysis; conditions: time 12.5 hrs
[8] = target: Proteasome Macropain subunit (Homo sapiens) (UniProt P49721); assay: Inhibition of human 20S proteosome beta2 subunit using Bz-VGR-AMC as substrate preincubated for 30 mins with compound prepared under dark condition followed by substrate addition and measured after 12 hrs by fluorescence plate reader analysis; conditions: time 12.5 hrs
[9] = test system: HeLa; assay: Cytotoxicity against human HeLa cells assessed as reduction in cell viability incubated for 48 hrs with compound prepared under dark condition by CellTIter blue reagent based fluorescence plate reader analysis
[10] = test system: MCF7; assay: Cytotoxicity against human MCF7 cells assessed as reduction in cell viability incubated for 48 hrs with compound prepared under dark condition by CellTIter blue reagent based fluorescence plate reader analysis; format: functional; conditions: MCF7, 48 h
[11] = test system: A549; assay: Cytotoxicity against human A549 cells assessed as reduction in cell viability incubated for 48 hrs with compound prepared under dark condition by CellTIter blue reagent based fluorescence plate reader analysis; format: functional; conditions: A549, 48 h
[12] = Retention time of compound by HPLC analysis; format: physicochemical
[13] = Potency index, ratio of E-enrichment isomer IC50 to test compound (Z-enrichment isomer) IC50 for cytotoxicity against human HeLa cells assessed as reduction in c ell viability incubated for 48 hrs by CellTiter blue reagent based fluorescence plate reader analysis; format: functional
[14] = Potency index, ratio of E-enrichment isomer IC50 to test compound (Z-enrichment isomer) IC50 for cytotoxicity against human MCF7 cells assessed as reduction in c ell viability incubated for 48 hrs by CellTiter blue reagent based fluorescence plate reader analysis; format: functional
[15] = Potency index, ratio of E-enrichment isomer IC50 to test compound (Z-enrichment isomer) IC50 for cytotoxicity against human A549 cells assessed as reduction in c ell viability incubated for 48 hrs by CellTiter blue reagent based fluorescence plate reader analysis; format: functional

half-life [1]	inhibition [2]	inhibition [3]	inhibition [7]	inhibition [8]	SMILES	IC50 [4]	IC50 [5]	IC50 [6]	IC50 [9]	IC50 [10]	IC50 [11]	other results
> 100 h	inactive	inactive	–	–	Cc1cc(C)cc(/N=N\c2cccc(C(=O)N[C@@H](Cc3c[nH]c4ccccc34)C(=O)N[C@@H](CC(C)C)C(=O)N[C@H](/C=C/S(C)(=O)=O)CC(C)C)c2)c1	0.25 µM	5.44 µM	0.42 µM	–	–	–	–
> 100 h	inactive	inactive	–	–	Cc1cc(C)cc(/N=N\c2cccc(C(=O)N[C@H](C(=O)N[C@@H](Cc3ccccc3)C(=O)N[C@H](/C=C/S(C)(=O)=O)CC(C)C)C(C)C)c2)c1	2.9 µM	2.25 µM	6.95 µM	–	–	–	–
–	–	–	inactive	inactive	Cc1cc(C)cc(/N=N/c2cccc(C(=O)N[C@@H](Cc3ccccc3)C(=O)N[C@@H](CC(C)C)C(=O)N[C@H](/C=C/S(C)(=O)=O)CC(C)C)c2)c1	–	–	–	1.23 µM	35.8 µM	2.59 µM	–
–	–	–	inactive	inactive	Cc1cc(C)cc(/N=N/c2cccc(C(=O)N[C@H](C(=O)N[C@@H](Cc3ccccc3)C(=O)N[C@H](/C=C/S(C)(=O)=O)CC(C)C)C(C)C)c2)c1	–	–	–	9.6 µM	48.5 µM	45.9 µM	–
–	–	–	inactive	inactive	Cc1cc(C)cc(/N=N/c2cccc(C(=O)N[C@@H](CC(C)C)C(=O)N[C@@H](CC(C)C)C(=O)N[C@H](/C=C/S(C)(=O)=O)CC(C)C)c2)c1	–	–	–	0.42 µM	8.36 µM	2.56 µM	Retention_time [12]: 11.1 min
–	–	–	inactive	inactive	Cc1cc(C)cc(/N=N/c2cccc(C(=O)N[C@@H](Cc3c[nH]c4ccccc34)C(=O)N[C@@H](CC(C)C)C(=O)N[C@H](/C=C/S(C)(=O)=O)CC(C)C)c2)c1	–	–	–	0.285 µM	10.6 µM	1.98 µM	–
–	–	–	–	–	CC(C)C[C@H](NC(=O)[C@H](Cc1ccc(/N=N/c2ccccc2)cc1)NC(=O)OC(C)(C)C)B1OC2C[C@@H]3C[C@@H](C3(C)C)[C@@]2(C)O1 (some centres not stated)	–	–	–	38.2 µM	40.1 µM	52.5 µM	–
> 100 h	inactive	inactive	–	–	Cc1cc(C)cc(/N=N\c2cccc(C(=O)N[C@@H](CC(C)C)C(=O)N[C@@H](CC(C)C)C(=O)N[C@H](/C=C/S(C)(=O)=O)CC(C)C)c2)c1	0.28 µM	4.39 µM	0.73 µM	–	–	–	Retention_time [12]: 13.5 min
–	–	–	–	–	CC(C)CC(NC(=O)[C@H](Cc1ccccc1)NC(=O)c1ccc(/N=N\c2ccccc2)cc1)B(O)O (some centres not stated)	–	6.7 µM	17.3 µM	–	–	–	–
–	–	–	–	–	CC(C)C[C@H](NC(=O)[C@H](Cc1ccc(/N=N\c2ccccc2)cc1)NC(=O)OC(C)(C)C)B1OC2C[C@@H]3C[C@@H](C3(C)C)[C@@]2(C)O1 (some centres not stated)	38.1 µM	27.9 µM	66.4 µM	–	–	–	Ratio IC50 [13]: 1; Ratio IC50 [14]: 1.4; Ratio IC50 [15]: 0.79
> 100 h	inactive	inactive	–	–	Cc1cc(C)cc(N=Nc2cccc(C(=O)N[C@@H](Cc3ccccc3)C(=O)N[C@@H](CC(C)C)C(=O)N[C@H](C=CS(C)(=O)=O)CC(C)C)c2)c1	0.32 µM	7.51 µM	1.9 µM	–	–	–	–
